Assays:
[1] = Withdrawal by means of plasma exchange (comparative): methadone, methadone metabolites and thebaine measured in urine; conditions: for Substance measured in urine: before 1. PE / before therapy; for concentration at 1 day / concentration at 2 day / concentration at 3 day / concentration at 4 day / concentration at 5 day / concentration at 6 day / concentration at 7 day / concentration at 17 day / concentration at 24 day / concentration at 31 day: human, in vivo
From the text: In the withdrawal therapy of a methadone addict, one of the inventors has practised the method of plasma exchange (PE) for assisting and accelerating the removal of methadone from the body, i.e., blood was taken from the patient, the cellular components were separated and re-infused into the body, and instead of the patient's own plasma portion, the plasma of a donor was supplied.
The patient was 2 x connected to the plasmapheresis (1st and 3rd day). […] Besides, the coagulation parameters were measured because of the hypercoagulability.

[2] = system: patient in methadone withdrawal; assay: Methadone withdrawal by administration of α1-acid glycoprotein: clinical course; type: in vivo, human (patient)
Experimental: The patient's circulation is stable, the patient is co-operative, a venous cannula and a peripheral venous catheter on the left side are set. Immediately after admission, beginning of sedation with Dormicum 0.4 mg/kg/d, Clonidin 0.02 mg/kg/d. Dormicum bolus administration at admission.
Volume substitution with Elohaest, human albumin and electrolyte solution.
From 4:05 p.m. to 4:15 p.m., renewed hemodilution: 400 ml of own blood was drawn.
Urinating is without any problems and spontaneous.
The patient's only problems are nicotine withdrawal.
Therapy with Clonidin and Dormicum is changed to oral (4×0.075 mg Catapresan and 4×7.5 mg Dormicum per os) with sufficient magnesium substitution in addition. Subjectively, the patient feels well and is free from any discomfort.
Removal of the peripheral venous catheter, continuation of the oral therapy, the patient is moved to the LNKH while being in a good general state and subjectively feeling well.

[3] = system: isolated perfused rat livers; conditions: protein added to perfusate; cited from earlier work

With `CCC(=O)C(CC(C)N(C)C)(c1ccccc1)c1ccccc1` (racemic) [methadone, reference compound] the “Substance measured in urine” value [1] was 15 µg/mL, the concentration at 1 day [1] was 3000 ng/mL and the concentration at 2 day [1] was 1900 ng/mL. The concentration at 3 day [1] was 500 ng/mL, the concentration at 4 day [1] was 500 ng/mL and the concentration at 5 day [1] was 400 ng/mL. For the same compound, the concentration at 6 day [1] was 300 ng/mL, the concentration at 7 day [1] was 500 ng/mL and the concentration at 17 day [1] was 0 ng/mL. It also gave a concentration at 24 day [1] of 0 ng/mL and a concentration at 31 day [1] of 0 ng/mL.

In the case of `COC1=CC=C2[C@H]3Cc4ccc(OC)c5c4[C@@]2(CCN3C)[C@H]1O5` [thebaine], the “Substance measured in urine” value [1] is reported as 7 µg/mL, the concentration at 1 day [1] is reported as 0 ng/mL and the concentration at 2 day [1] is reported as 0 ng/mL. The concentration at 3 day [1] was 0 ng/mL, the concentration at 4 day [1] was 0 ng/mL and the concentration at 5 day [1] was 0 ng/mL. The concentration at 6 day [1] was 0 ng/mL, the concentration at 7 day [1] was 0 ng/mL and the concentration at 17 day [1] was 0 ng/mL. For the same compound, the concentration at 24 day [1] was 0 ng/mL and the concentration at 31 day [1] was 0 ng/mL.

In the case of α1-acid glycoprotein, the “tolerability after first administration” value ([2]; 3 grams in 500 ml of infusion solution at 10 a.m.) is reported as “first symptoms with slight sweating, otherwise no problems so far”, the “acute reaction after second administration” value ([2]; 6 grams in merely 150 ml of infusion solution at 4:30 p.m.) is reported as “symptoms of an acute reaction, similar to an allergy” and the physical withdrawal symptoms ([2]; 9/20/97, day after AAG administration) is reported as “no physical withdrawal symptoms”. The physical withdrawal symptoms ([2]; 9/21/97, second day after AAG administration) was “no particular physical withdrawal symptoms”, the “withdrawal symptoms after AAG administration” value ([2]; after the short crisis following the 2nd partial amount) was “intensive recovery phase without any withdrawal symptoms” and the “total time until treatment could be terminated” value ([2]; methadone withdrawal with AAG, 2nd patient) was “three”. The “influence on elimination of drugs capable of being bound” value [3] was “slowed down” and the “influence on elimination of nonbinding drugs” value [3] was “no influence”.
